Test results reported in DBAASP.
In brackets after ≈: the same amount, converted by molar mass.

Key:
Experiment in all cases: ≥ marks a high value that may be exact or a test limit, other limits are often not marked, values filed in µg/mL are converted to µM
Escherichia coli 078 = system: Escherichia coli 078
[1] = system: Escherichia coli ATCC 25922
Escherichia coli UB1005 = system: Escherichia coli UB1005
[2] = system: Lacticaseibacillus rhamnosus 7469
[3] = system: Pseudomonas aeruginosa ATCC 27853
[4] = system: Salmonella enterica subsp. enterica serovar Pullorum ATCC 7913
[5] = system: Salmonella enterica subsp. enterica serovar Typhimurium ATCC 14028
[6] = system: Salmonella enterica subsp. enterica serovar Typhimurium C77-31
[7] = system: Staphylococcus aureus ATCC 25923
[8] = system: Staphylococcus aureus ATCC 29213
[9] = system: Staphylococcus epidermidis ATCC 12228
[10] = system: Streptococcus agalactiae CICC 10465
Streptococcus agalactiae = system: Streptococcus agalactiae
[11] = system: Streptococcus thermophilus YM-C
[12] = system: Candida albicans ATCC 10231
[13] = system: Enterococcus faecalis PCM 2673
[14] = system: Pseudomonas aeruginosa ATCC 9027
[15] = system: Klebsiella pneumoniae ATCC 13883
[16] = system: Staphylococcus aureus USA 300 LAC
[17] = system: Aspergillus oryzae NBRC 100959
[18] = system: Candida viswanathii NBRC 10321
[19] = system: Escherichia coli NBRC 3972
[20] = system: Micrococcus luteus NBRC 3333
[21] = system: Staphylococcus epidermidis NBRC 12993
[22] = system: Acinetobacter baumannii CCARM 12035
[23] = system: Bacillus subtilis KCTC 3068
[24] = system: Enterococcus faecalis KCTC 2011
[25] = system: Escherichia coli CCARM 1229
[26] = system: Escherichia coli KCTC 1682
[27] = system: Pseudomonas aeruginosa CCARM 2095
[28] = system: Pseudomonas aeruginosa KCTC 1637
[29] = system: Salmonella typhimurium CCARM 8009
[30] = system: Salmonella typhimurium KCTC 1926
[31] = system: Staphylococcus aureus KCTC 1621

Which MIC (Escherichia coli 078) does the source give for `CC[C@H](C)[C@H](NC(=O)[C@H](CC(C)C)NC(=O)[C@@H](NC(=O)[C@@H](N)CC(=O)O)[C@@H](C)CC)C(=O)N[C@H](C(=O)N[C@H](C(=O)NCC(=O)NCC(=O)N[C@@H](CCCCN)C(=O)N[C@@H](CCC(N)=O)C(=O)N[C@@H](CCCN=C(N)N)C(=O)N[C@@H](CCCCN)C(=O)N[C@@H](CCCCN)C(=O)N[C@@H](CCCN=C(N)N)C(=O)N[C@@H](CCCN=C(N)N)C(=O)N[C@@H](CCCN=C(N)N)C(N)=O)C(C)C)[C@@H](C)CC` [DILIIVGGKQRKKRRR] here?
Its MIC is 4 µM (≈ 7.74 µg/mL).

What about the MIC [1] of the same molecule?
The MIC was 4 µM (≈ 7.74 µg/mL).

What about the MIC (Escherichia coli UB1005) of the same molecule?
The MIC was 8 µM (≈ 15.5 µg/mL).

What about the MIC [2] of the same molecule?
The MIC was at least 32 µM.

What about the MIC [3] of the same molecule?
Its MIC is 4 µM (≈ 7.74 µg/mL).

What about the MIC [4] of the same molecule?
The MIC was 8 µM (≈ 15.5 µg/mL).

And the MIC [5]?
The MIC was 4 µM (≈ 7.74 µg/mL).

And the MIC [6]?
The MIC was 4 µM (≈ 7.74 µg/mL).

What about the MIC [7] of the same molecule?
The MIC was 8 µM (≈ 15.5 µg/mL).

And the MIC [8]?
Its MIC is 4 µM (≈ 7.74 µg/mL).

And the MIC [9]?
Its MIC is 4 µM (≈ 7.74 µg/mL).

What about the MIC [10] of the same molecule?
The MIC was 2 µM (≈ 3.87 µg/mL).

And the MIC (Streptococcus agalactiae)?
The MIC was 5.66 µM (≈ 10.9 µg/mL).

And the MIC [11]?
The MIC was at least 64 µM.

For `CC[C@H](C)[C@H](NC(=O)[C@H](CC(C)C)NC(=O)[C@@H](NC(=O)[C@@H](N)CC(=O)O)[C@@H](C)CC)C(=O)N[C@H](C(=O)N[C@H](C(=O)NCC(=O)NCC(=O)N[C@@H](CCCN=C(N)N)C(=O)N[C@@H](CCCN=C(N)N)C(=O)N[C@@H](CCCN=C(N)N)C(=O)N[C@@H](CCCN=C(N)N)C(=O)N[C@@H](CCCN=C(N)N)C(=O)N[C@@H](CCCN=C(N)N)C(N)=O)C(C)C)[C@@H](C)CC` [DILIIVGGRRRRRR], which MIC (Escherichia coli 078) is on record?
The MIC was at least 32 µM.

What about the MIC [1] of the same molecule?
The MIC was 16 µM (≈ 27.8 µg/mL).

And the MIC (Escherichia coli UB1005)?
Its MIC is 16 µM (≈ 27.8 µg/mL).

What about the MIC [2] of the same molecule?
The MIC was at least 64 µM.

And the MIC [3]?
The MIC was over 64 µM.

What about the MIC [4] of the same molecule?
Its MIC is 8 µM (≈ 13.9 µg/mL).

And the MIC [5]?
The MIC was over 64 µM.

And the MIC [6]?
The MIC was at least 64 µM.

What about the MIC [7] of the same molecule?
The MIC was over 64 µM.

What about the MIC [8] of the same molecule?
The MIC was 2 µM (≈ 3.47 µg/mL).

And the MIC [9]?
The MIC was 2 µM (≈ 3.47 µg/mL).

What about the MIC [10] of the same molecule?
The MIC was 2 µM (≈ 3.47 µg/mL).

And the MIC (Streptococcus agalactiae)?
The MIC was 5.66 µM (≈ 9.82 µg/mL).

What about the MIC [11] of the same molecule?
The MIC was at least 64 µM.

For `CC[C@H](C)[C@H](NC(=O)[C@H](CCCCN)NC(=O)[C@H](CCCCN)NC(=O)[C@@H](NC(=O)[C@@H](NC(=O)[C@H](CC(=O)O)NC(=O)[C@H](Cc1ccccc1)NC(=O)[C@H](CC(C)C)NC(=O)CN)[C@@H](C)CC)[C@@H](C)CC)C(=O)N[C@@H](C)C(=O)N[C@@H](C)C(=O)N[C@@H](CO)C(=O)N[C@@H](Cc1ccccc1)C(N)=O` [GLFDIIKKIAASF], which MIC [12] is on record?
Its MIC is 22.5 µM (≈ 32 µg/mL).

And the MIC [13]?
Its MIC is 22.5 µM (≈ 32 µg/mL).

What about the MIC [1] of the same molecule?
The MIC was 11.2 µM (≈ 16 µg/mL).

What about the MIC [14] of the same molecule?
The MIC was 45 µM (≈ 64 µg/mL).

And the MIC [7]?
Its MIC is 22.5 µM (≈ 32 µg/mL).

What does the source list for `CC[C@H](C)[C@H](NC(=O)[C@H](CCCCN)NC(=O)[C@H](CCCN=C(N)N)NC(=O)[C@@H](N)CC(C)C)C(=O)N[C@@H](Cc1c[nH]c2ccccc12)C(=O)N[C@@H](Cc1c[nH]c2ccccc12)C(=O)N[C@@H](Cc1c[nH]c2ccccc12)C(=O)N[C@@H](Cc1c[nH]c2ccccc12)C(N)=O` [LRKIWWWW]?
MIC [1]: 12.5 µM (≈ 15.9 µg/mL); MIC [15]: 8.8 µM (≈ 11.2 µg/mL); MIC [16]: 4.38 µM (≈ 5.58 µg/mL)

`CC[C@H](C)[C@H](NC(=O)[C@H](CCCCN)NC(=O)[C@@H](N)CCCN=C(N)N)C(=O)N[C@@H](CCCCN)C(=O)N[C@@H](CCCN=C(N)N)C(=O)N[C@@H](Cc1ccc(O)cc1)C(=O)N[C@@H](CC(C)C)C(=O)N[C@@H](CCCN=C(N)N)C(=O)N[C@@H](CCCN=C(N)N)C(=O)N[C@@H](CCSC)C(=O)N[C@H](C(=O)N[C@H](C(=O)N[C@H](C(=O)N[C@@H](Cc1c[nH]c2ccccc12)C(=O)O)[C@@H](C)CC)[C@@H](C)CC)[C@@H](C)CC` [RKIKRYLRRMIIIW] was tested. Which MIC [17] did it give?
Its MIC is 12.9 µM (≈ 25 µg/mL).

And the MIC [18]?
Its MIC is 25.7 µM (≈ 50 µg/mL).

And the MIC [19]?
The MIC was at least 411 µM.

What about the MIC [20] of the same molecule?
Its MIC is 25.7 µM (≈ 50 µg/mL).

And the MIC [21]?
Its MIC is 12.9 µM (≈ 25 µg/mL).

Which results are given for `CC[C@H](C)[C@H](NC(=O)CNC(=O)[C@H](CC(=O)O)NC(=O)[C@H](CCCN=C(N)N)NC(=O)[C@@H](NC(=O)[C@H](CC(N)=O)NC(=O)[C@H](CCCN=C(N)N)NC(=O)CNC(=O)[C@@H](NC(=O)[C@H](CCCCN)NC(=O)[C@H](CCC(=O)O)NC(=O)[C@@H](NC(=O)[C@H](CCCCN)NC(=O)[C@H](CCCCN)NC(=O)[C@H](C)NC(=O)[C@@H](NC(=O)[C@H](CCCCN)NC(=O)[C@H](Cc1c[nH]c2ccccc12)NC(=O)[C@@H](N)CCCN=C(N)N)[C@@H](C)CC)[C@@H](C)CC)C(C)C)C(C)C)C(=O)N[C@H](C(=O)N[C@@H](CCCCN)C(=O)N[C@@H](C)C(N)=O)[C@@H](C)CC` [RWKIAKKIEKVGRNVRDGIIKA]?
MIC [22]: 8 µM (≈ 20.6 µg/mL); MIC [23]: 16 µM (≈ 41.3 µg/mL); MIC [24]: ≥ 128 µM; MIC [25]: 2 µM (≈ 5.16 µg/mL); MIC [26]: 1 µM (≈ 2.58 µg/mL); MIC [27]: 8 µM (≈ 20.6 µg/mL); MIC [28]: 2 µM (≈ 5.16 µg/mL); MIC [29]: 4 µM (≈ 10.3 µg/mL); MIC [30]: 2 µM (≈ 5.16 µg/mL); MIC [31]: 16 µM (≈ 41.3 µg/mL)

Which results are given for `CC[C@H](C)[C@H](NC(=O)CNC(=O)[C@H](CC(=O)O)NC(=O)[C@H](CCCN=C(N)N)NC(=O)[C@@H](NC(=O)[C@H](CC(N)=O)NC(=O)[C@H](CCCN=C(N)N)NC(=O)CNC(=O)[C@@H](NC(=O)[C@H](CCCCN)NC(=O)[C@H](CCC(=O)O)NC(=O)[C@@H](NC(=O)[C@H](CCCCN)NC(=O)[C@H](CCCCN)NC(=O)[C@H](Cc1ccccc1)NC(=O)[C@@H](NC(=O)[C@H](CCCCN)NC(=O)[C@H](Cc1c[nH]c2ccccc12)NC(=O)[C@@H](N)CCCN=C(N)N)[C@@H](C)CC)[C@@H](C)CC)C(C)C)C(C)C)C(=O)N[C@H](C(=O)N[C@@H](CCCCN)C(=O)N[C@@H](C)C(N)=O)[C@@H](C)CC` [RWKIFKKIEKVGRNVRDGIIKA]?
MIC [22]: 2 µM (≈ 5.31 µg/mL); MIC [23]: 8 µM (≈ 21.2 µg/mL); MIC [24]: ≥ 64 µM; MIC [25]: 4 µM (≈ 10.6 µg/mL); MIC [26]: 1 µM (≈ 2.65 µg/mL); MIC [27]: 2 µM (≈ 5.31 µg/mL); MIC [28]: 2 µM (≈ 5.31 µg/mL); MIC [29]: 2 µM (≈ 5.31 µg/mL); MIC [30]: 2 µM (≈ 5.31 µg/mL); MIC [31]: 8 µM (≈ 21.2 µg/mL)

With `CC[C@H](C)[C@H](NC(=O)[C@H](CCCCN)NC(=O)[C@H](CCCN=C(N)N)NC(=O)[C@H](CC(C)C)NC(=O)[C@@H](N)Cc1c[nH]c2ccccc12)C(=O)N[C@@H](Cc1c[nH]c2ccccc12)C(=O)N[C@@H](Cc1c[nH]c2ccccc12)C(=O)N[C@@H](Cc1c[nH]c2ccccc12)C(N)=O` [WLRKIWWW] as the molecule, how does the MIC [1] read?
Its MIC is 17.7 µM (≈ 22.5 µg/mL).

What about the MIC [15] of the same molecule?
Its MIC is 25 µM (≈ 31.8 µg/mL).

What about the MIC [16] of the same molecule?
Its MIC is 4.38 µM (≈ 5.58 µg/mL).
